Experimental data from US10548912B2, “Dosage regimen for a tiacumicin compound” (Astellas Pharma Europe Ltd., priority 2015, dated 2020).
Read-outs that look alike come from different tables or passages of the source.

Legend:
CDI = conditions: Phase III studies, mITT analysis; cited from earlier work
[1] = system: Clostridium difficile (C. diff) toxins A and B; experiment: Detection of C. difficile toxins A and B in human faecal samples by ELISA (EXTEND samples); format: in vivo
Procedure: The detection of Clostridium difficile (C. diff) toxins A and B in human faecal samples was performed by ELISA. The samples to be analysed originated from clinical study 2819-MA-1002 (EXTEND).
The samples were sent to LGC (Analytical lab in Fordham, Cambridgeshire, UK) packed in dry ice and upon receipt stored in a freezer (nominally −80° C.). For each patient a stool sample was collected at Day 0 (screening) and also in case of disease recurrence or an unscheduled visit. For subjects participating in the Microbiome sub-study stool samples were collected at: Day 0 (screening), Day 5, Day 12, Day 27, Day 40, Day 55 and in the case of disease recurrence or an unscheduled visit. A total of 596 faecal samples were collected during the study.
C. difficile toxins A and B in human faecal samples were detected using TECHLAB C. difficile Tox A/B II ELISA kits (Product Number T5015).
The assay readout is the spectrophotometric dual wavelength optical density (OD) read at 450 nm and referenced at 620 nm and expressed in Absorbance Units (AU). All samples were measured in duplicate. The presence (+) or absence (−) of toxin was reported together with the mean OD.
The acceptability of each batch of test samples was dependent on the data from the QC samples fulfilling the acceptance criteria outlined below in Table 5, in that all positive QCs remain above the cut off value of >0.080 OD and negative QCs remain ≤0.080 OD. All batches contained 2 separate sets of QC samples which were measured in duplicate. The precision was calculated between the OD of replicates of each set using the coefficient of variation (CV) which should be <20%.

[2] = system: Clostridium difficile infections (CDI); conditions: following a vancomycin taper; cited from earlier work
[3] = system: Clostridium difficile infection; conditions: Cornely 2012; 200 mg Fidaxomicin twice daily or vancomycin 125 mg four times daily orally for 10 days; cited from earlier work
[4] = system: Clostridium difficile infection; conditions: Louie 2011; 200 mg Fidaxomicin twice daily or vancomycin 125 mg four times daily orally for 10 days; cited from earlier work
[5] = system: Clostridium difficile infection; experiment: Phase IIIb/IV randomized open-label EXTEND study (2819-MA-1002): extended fidaxomicin vs standard vancomycin; format: in vivo, human
Procedure: Fidaxomicin (FDX) is believed to reduce recurrence primarily through minimal collateral damage to colonic microflora. […] Subjects will receive 200 mg twice daily (b.i.d.) for 5 days from Day 1 to Day 5. From Day 6 to Day 25, subjects will receive 200 mg once daily on alternate days (first alternate day dose given on Day 7). This extension of the dose will allow a longer period for the protective microflora to recover and extend the period of time over which Clostridium difficile cells are suppressed, and kill any dormant spores that germinate. The extension of the dose also targets the early recurrence period documented in the phase 3 studies—the first 15 days after the end of therapy during which the majority of recurrences occurred. By covering this period this revised dosing regimen may reduce the recurrence to <10%, preferably to <5% and even more preferred to <3%. The impact on the gut microflora was limited supporting the rationale for this study.
The dosing of vancomycin (Vancocin™) to be administered in this study is in line with the SmPC for Vancocin. Subjects will receive 125 mg four times daily (q.i.d.) for 10 days from Day 1 to Day 10.
The dosage regimen was as described in Table 1 of Example 1.

[6] = Sub-study visit day 5, n = 20 per arm
[7] = Sub-study visit day 12, n = 20 per arm
[8] = Sub-study visit day 27, n = 20 Fidaxomicin, 17 Vancomycin
[9] = Day 55, extended fidaxomicin or standard vancomycin
[10] = Table 7, extended fidaxomicin regimen of Example 1 or standard vancomycin
[11] = extended fidaxomicin Day 55, standard vancomycin Day 40

SMILES: CN[C@H](CC(C)C)C(=O)N[C@H]1C(=O)N[C@@H](CC(N)=O)C(=O)N[C@H]2C(=O)N[C@H]3C(=O)N[C@H](C(=O)N[C@H](C(=O)O)c4cc(O)cc(O)c4-c4cc3ccc4O)[C@H](O)c3ccc(c(Cl)c3)Oc3cc2cc(c3O[C@@H]2O[C@H](CO)[C@@H](O)[C@H](O)[C@H]2O[C@H]2C[C@](C)(N)[C@H](O)[C@H](C)O2)Oc2ccc(cc2Cl)[C@H]1O [vancomycin]
- Recurrence of CDI (CDI): 26%
- CDI toxin in faecal stool samples, Negative (%) [1, 6]: (75%)
- CDI toxin in faecal stool samples, Negative (number of subjects) [1, 6]: 15
- CDI toxin in faecal stool samples, Positive (%) [1, 6]: (25.0%)
- CDI toxin in faecal stool samples, Positive (number of subjects) [1, 6]: 5
- CDI toxin in faecal stool samples, Negative (%) [1, 7]: (100.0%)
- CDI toxin in faecal stool samples, Negative (number of subjects) [1, 7]: 20
- CDI toxin in faecal stool samples, Positive (number of subjects) [1, 7]: 0
- CDI toxin in faecal stool samples, Negative (%) [1, 8]: (82.4%)
- CDI toxin in faecal stool samples, Negative (number of subjects) [1, 8]: 14
- CDI toxin in faecal stool samples, Positive (%) [1, 8]: (17.6%)
- CDI toxin in faecal stool samples, Positive (number of subjects) [1, 8]: 3
- Average symptom-free interval (SFI) [2]: 37 days
- Recurrence 30 days after end of treatment (%) [3]: 26.9%
- Recurrence 30 days after end of treatment (patients/N) [3]: 60/223
- Sustained clinical cure 30 days after end of treatment (patients/N) [3]: 163/257
- Recurrence 30 days after end of treatment (%) [4]: 25.3%
- Recurrence 30 days after end of treatment (patients/N) [4]: 67/265
- Sustained clinical cure 30 days after end of treatment (patients/N) [4]: 198/309
- % of patients with <3 Unformed bowel movements per day (UBM) ([5]; Day 1): 21.1%
- % of patients with ≥3 Unformed bowel movements per day (UBM) ([5]; Day 1): 78.9%
- % of patients with <3 Unformed bowel movements per day (UBM) ([5]; Day 2): 40.6%
- % of patients with ≥3 Unformed bowel movements per day (UBM) ([5]; Day 2): 59.4%
- % of patients with <3 Unformed bowel movements per day (UBM) ([5]; Day 3): 59.6%
- % of patients with ≥3 Unformed bowel movements per day (UBM) ([5]; Day 3): 40.4%
- % of patients with <3 Unformed bowel movements per day (UBM) ([5]; Day 4): 72.0%
- % of patients with ≥3 Unformed bowel movements per day (UBM) ([5]; Day 4): 28.0%
- % of patients with <3 Unformed bowel movements per day (UBM) ([5]; Day 5): 81.4%
- % of patients with ≥3 Unformed bowel movements per day (UBM) ([5]; Day 5): 18.6%
- % of patients with <3 Unformed bowel movements per day (UBM) ([5]; Day 6): 80.6%
- % of patients with ≥3 Unformed bowel movements per day (UBM) ([5]; Day 6): 19.4%
- % of patients with <3 Unformed bowel movements per day (UBM) ([5]; Day 7): 85.5%
- % of patients with ≥3 Unformed bowel movements per day (UBM) ([5]; Day 7): 14.5%
- % of patients with <3 Unformed bowel movements per day (UBM) ([5]; Day 8): 86.8%
- % of patients with ≥3 Unformed bowel movements per day (UBM) ([5]; Day 8): 13.2%
- % of patients with <3 Unformed bowel movements per day (UBM) ([5]; Day 9): 88.1%
- % of patients with ≥3 Unformed bowel movements per day (UBM) ([5]; Day 9): 11.9%
- % of patients with <3 Unformed bowel movements per day (UBM) ([5]; Day 10): 89.9%
- % of patients with ≥3 Unformed bowel movements per day (UBM) ([5]; Day 10): 10.1%
- % of patients with <3 Unformed bowel movements per day (UBM) ([5]; Day 11): 91.5%
- % of patients with ≥3 Unformed bowel movements per day (UBM) ([5]; Day 11): 8.5%
- % of patients with <3 Unformed bowel movements per day (UBM) ([5]; Day 12): 94.7%
- % of patients with ≥3 Unformed bowel movements per day (UBM) ([5]; Day 12): 5.3%
- % of patients with <3 Unformed bowel movements per day (UBM) ([5]; Day 13): 84.4%
- % of patients with ≥3 Unformed bowel movements per day (UBM) ([5]; Day 13): 15.6%
- Recurrence of CDI (%) at visit 5 (Day 55) [5, 9]: 16.1%
- Recurrence of CDI at visit 5 (Day 55) (patients/N) [5, 9]: 26/161
- Recurrence of CDI at visit 5 (Day 55) (patients/N) ([5]; Day 55, extended fidaxomicin or standard vancomycin, listed as VAN): 15/94
- Recurrence 30 days after end of treatment (%) [5, 10]: 16.1%
- Recurrence 30 days after end of treatment (patients/N) [5, 10]: 26/161
- Sustained clinical cure (%) at 30 days after end of treatment [5, 11]: 62.9%
- Sustained clinical cure at 30 days after end of treatment (patients/N) [5, 11]: 105/167
- Sustained clinical cure (%) at 30 days after end of treatment ([5]; extended fidaxomicin Day 55, standard vancomycin Day 40, listed as VAN): 62.9%
